Measured values taken from paper PMC12114169, “Synthesis, Characterisation, Biological Evaluation and In Silico Studies of Quinoline–1,2,3-Triazole–Anilines as Potential Antitubercular and Anti-HIV Agents” (Molecules, 2025).
≈ marks a conversion by molar mass, not a printed value. Where “and” joins values, the source holds several entries; their conditions need not be identical. Identical values can stand only once. Like-named read-outs stand apart in the source and are kept apart here.

Experiments:
[1] = tested on: Mtb H37Rv (ATCC 27294) strain; assay: Antimycobacterial micro broth dilution (resazurin) assay; assay type: cell-based, Mycobacterium tuberculosis; details: 7 days, read-out: Anti-Mtb H37Rv MIC90
[2] = tested on: HIV-1 subtype B (NL4.3 virus); assay: Luciferase-based antiviral assay in TZM-bl cells; details: for SI (CC50/IC50): selectivity index, TZM-bl CC50 / HIV-1 IC50
[3] = MTT cytotoxicity evaluation; details: human, Cytotoxicity CC50 TZM-bl Cell Line, MTT assay
[4] = tested on: TZM-bl cell line; assay: MTT cytotoxicity evaluation; details: read-out: Cytotoxicity CC50 TZM-bl Cell Line; MTT assay
[5] = tested on: Mtb; set-up: method as in PMID 21489660; details: antitubercular activity; cited from earlier work
[6] = target: HIV reverse transcriptase; set-up: method as in PMID 30370848; details: cited from earlier work
[7] = Mycobacterium tuberculosis, 168 h
[8] = Human immunodeficiency virus 1, TZM-bl, 48 h, read-out: Anti-HIV HIV-1 Subtype B IC50, NL4.3 virus in TZM-bl cells, 48 h, luciferase
[9] = read-out: Anti-HIV HIV-1 Subtype B IC50, NL4.3 virus in TZM-bl cells, 48 h, luciferase

Row | Compound | MIC90 [1, 7] [µM] | IC50 [2, 8] [µM] | SI (CC50/IC50) [2] | CC50 [3] [µM] | also measured
1 | FC(F)(F)c1ccccc1NCc1cn(-c2ccnc3cc(Cl)ccc23)nn1 [Compound 11g, [1-(7-Chloro-4-quinolinyl)-1H-1,2,3-triazole-4-methyl]-2-triflouromethylaniline] | 155 (≈ 62.6 µg/mL) | 0.388 | 11,367.49 | – | IC50 [2, 9]: 0.388 µM
2 | CC[C@@H](CO)NCCN[C@@H](CC)CO [Ethambutol, reference compound] | 9.68 (≈ 1.98 µg/mL) | – | – | – | –
3 | Clc1ccc2c(-n3cc(CNc4ccccc4)nn3)ccnc2c1 [Compound 11a] | 187 (≈ 62.6 µg/mL) | 3.01 | 58.75 | > 100 | CC50 [4]: 177 µM
4 | [N-]=[N+]=Nc1ccnc2cc(Cl)ccc12 [Compound 7, 4-azido-7-chloroquinoline] | 19.1 (≈ 3.91 µg/mL) | – | – | – | –
5 | Fc1ccc(NCc2cn(-c3ccnc4cc(Cl)ccc34)nn2)cc1 [Compound 11d, [1-(7-Chloro-4-quinolinyl)-1H-1,2,3-triazole-4-methyl]-4-flouroaniline] | 177 (≈ 62.5 µg/mL) | – | – | 1320 | Anti-HIV HIV-1 Subtype B IC50 ([2]; NL4.3 virus in TZM-bl cells, 48 h, luciferase): DNC *
6 | Fc1cccc(NCc2cn(-c3ccnc4cc(Cl)ccc34)nn2)c1 [Compound 11h, [1-(7-Chloro-4-quinolinyl)-1H-1,2,3-triazole-4-methyl]-3-flouroaniline] | 88 (≈ 31.1 µg/mL) | 0.0103 | 2472.87 | 25.5 | MIC90 [1]: 88.72 µM (≈ 31.4 µg/mL); IC50 [2, 9]: 0.0103 µM
7 | Clc1ccc2c(-n3cc(CNc4ccc(I)cc4)nn3)ccnc2c1 [Compound 11c, [1-(7-Chloro-4-quinolinyl)-1H-1,2,3-triazole-4-methyl]-4-iodoaniline] | 1080 (≈ 501 µg/mL) | 23.2 | 6.76 | 157 | –
8 | COc1ccc2nccc(-n3cc(CNC(C)=O)nn3)c2c1 [Compound 1] | – | – | – | – | MIC [5]: 0.625 µg/mL (≈ 2.1 µM)
9 | COc1ccc2nccc(-n3cc(CN4CCN(C(C)=O)CC4)nn3)c2c1 [Compound 3] | – | – | – | – | MIC [5]: 0.625 µg/mL (≈ 1.71 µM)
10 | Clc1cccc(NCc2cn(-c3ccnc4cc(Cl)ccc34)nn2)c1 [Compound 11e, [1-(7-Chloro-4-quinolinyl)-1H-1,2,3-triazole-4-methyl]-3-chloroaniline] | 169 (≈ 62.5 µg/mL) | 714 | 1.17 | 835 | –
11 | C#CCNc1ccccc1 [Compound 10a, N-2-propyl-1-yl-benzanamine] | 3810 (≈ 500 µg/mL) | – | – | – | –
12 | O=[N+]([O-])c1cccc(NCc2cn(-c3ccnc4cc(Cl)ccc34)nn2)c1 [Compound 11i, [1-(7-Chloro-4-quinolinyl)-1H-1,2,3-triazole-4-methyl]-3-nitroaniline] | – | 0.17 | 0.05 | 0.00901 | IC50 [2, 9]: 0.167 µM
13 | COc1ccc(S(=O)(=O)NCc2cn(-c3ccnc4ccc(OC)cc34)nn2)cc1 [Compound 2] | – | – | – | – | MIC [5]: 0.625 µg/mL (≈ 1.47 µM)
14 | Cc1cn([C@H]2C[C@H](N=[N+]=[N-])[C@@H](CO)O2)c(=O)[nH]c1=O [AZT, azidothymidine, reference compound] | – | 0.0909 | 12,349 and 12,349.59 | 1120 | –
15 | COc1ccc(NCc2cn(-c3ccnc4cc(Cl)ccc34)nn2)cc1 [Compound 11j, [1-(7-Chloro-4-quinolinyl)-1H-1,2,3-triazole-4-methyl]-4-methoxyaniline] | 1370 (≈ 501 µg/mL) | 180 | 0.02 | 4 | –
16 | Clc1ccc2c(-n3cc(CNc4ccc(Br)cc4)nn3)ccnc2c1 [Compound 11b, [1-(7-Chloro-4-quinolinyl)-1H-1,2,3-triazole-4-methyl]-4-bromoaniline] | 1210 (≈ 502 µg/mL) | 124 | 1.994 × 10^−3 | 0.248 | –
17 | O=C1O[C@](C#CC2CC2)(C(F)(F)F)c2ccccc2N1Cc1cn(-c2ccnc3cc(Cl)ccc23)nn1 [Compound 5] | – | – | – | – | IC50 [6]: 0.8 µM
